Read-outs that look alike come from different tables or passages of the source.
How the values were obtained:
[1] = system: ligature of the pylorus in the rat (gastric secretions); experiment: model of ligature of the pylorus in the rat: volume and pH of gastric secretion; assay type: in vivo; conditions: for pharmacological effect 10 h after treatment administration: pylorus ligature, as compared to the control group
Experimental: In vivo Studies in Rats: Assessment of Volume and pH of Gastric Secretion. Studies conducted by the applicant in vivo in a model of ligature of the pylorus in the rat have investigated the pharmacological effects of the (−) and (+) isomers of tenatoprazole. In this well established and validated model, animals are pre-treated at different time points (10, 16 and 20 h) before ligature of the pylorus, and the volume and pH of the gastric secretions are measured 4 h after the ligature.

[2] = pharmacokinetic study in Caucasian subjects, acute and repeated administration (7 days) of tenatoprazole; assay type: in vivo, human
Experimental: In order to assess the difference in pharmacokinetic characteristics between the (−) enantiomer of the invention and the (+) enantiomer, a pharamcokinetic study was conducted.
Said study was carried out in Caucasian subjects, after an acute and repeated administration (7 days) of tenatoprazole. […] In contrast, it was observed that the evolution of the plasma concentration of the (+) isomer is not linear, and thus not predictive of the efficacy and the tolerability of the drug.

[3] = analysis of plasma enantiomers in subjects by CYP2C19 genotype; assay type: in vivo, human; conditions: for enantiomer in plasma: CYP2C19*2/*2 genotype, weak activity of cytochrome CYP2C19, slow metabolisers; for enantiomer in plasma (concentration): CYP2C19*1/*1 genotype, normal activity of cytochrome CYP2C19, rapid metabolisers
Text: More particularly, the unexpected pharmacokinetic properties of the (−) enantiomer of tenatoprazole were discovered during an extensive program of pharmacokinetic and metabolism studies in vitro and in vivo.
The homozygous subjects have a very weak metabolic activity of the cytochrome CYP2C19 which is responsible for the metabolism of tenatoprazole. […] These subjects are qualified as “slow metabolisers”.

[4] = system: cytochromes CYP3A4 and CYP2C19; experiment: cytochromes that intervene in the metabolism of tenatoprazole; assay type: in vitro ADME
Text: Further, it has been shown that different cytochromes intervene in the metabolism of tenatoprazole.

[5] = elimination half-life in slow metabolisers; assay type: in vivo, human; conditions: slow metabolisers (deficient in CYP2C19 activity)
Experimental: In another study, it was assessed that the elimination half-life of the (−) isomer of tenatoprazole is approximately 4 times shorter than that of the (+) isomer in slow metabolisers (which are deficient in CYP2C 19 activity), as summarised in the following table: […]

intragastric pH in dogs = experiment: antisecretory effect in dogs: intragastric pH over 24 h; assay type: in vivo; conditions: for % of holding time for 24 hours pH > 3 / % of holding time for 24 hours pH > 4: 10 mg/kg/day
Experimental: In vivo Studies in Dogs: Assessment of the Antisecretory Effect. Studies conducted by the applicant in vivo in dogs have investigated the antisecretory effect of the (−) isomer of tenatoprazole and the (+) isomer, by measuring the intragastric pH after treatment administration for 6 days (10 mg/kg/day). The profile of intragastric pH during a 24-hour period was recorded on the first two days of administration, on the 6th day, and two days after treatment termination. These pH values were compared to those measured at baseline, prior to treatment administration. The results corresponding to the pH>3 and pH>4 holding time for 24 h, expressed in percent, are described below: […]

CYP2C19 = CYP2C19 (Homo sapiens, UniProt P33261); experiment: in vitro metabolism by cytochrome: maximal rate of metabolism (Vmax); assay type: in vitro ADME; conditions: for Vmax (maximal rate of metabolism): in vitro
Sequence of CYP2C19 (P33261 whole entry): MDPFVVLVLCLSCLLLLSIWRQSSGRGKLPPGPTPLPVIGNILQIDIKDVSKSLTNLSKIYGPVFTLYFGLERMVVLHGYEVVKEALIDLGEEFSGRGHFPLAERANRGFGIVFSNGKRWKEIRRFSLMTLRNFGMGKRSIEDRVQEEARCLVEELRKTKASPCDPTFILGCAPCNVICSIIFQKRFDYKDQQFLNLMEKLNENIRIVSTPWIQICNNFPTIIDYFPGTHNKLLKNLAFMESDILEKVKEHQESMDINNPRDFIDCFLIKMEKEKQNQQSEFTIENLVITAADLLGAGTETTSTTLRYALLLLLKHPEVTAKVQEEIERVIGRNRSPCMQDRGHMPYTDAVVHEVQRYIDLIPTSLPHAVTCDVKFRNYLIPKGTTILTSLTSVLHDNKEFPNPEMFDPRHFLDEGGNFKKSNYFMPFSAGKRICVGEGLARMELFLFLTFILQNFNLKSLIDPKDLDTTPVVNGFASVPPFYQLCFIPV
Text: Vmax (−) is the value of Vmax of the (−) enantiomer of tenatoprazole.

[6] = doses of between 10 mg and 80 mg; previous studies; cited from earlier work
[7] = recent studies; versus omeprazole, lansoprazole and other PPIs; cited from earlier work
[8] = system: ulcerative lesions in rats; experiment: onset of healing and normalisation of histological changes of ulcerative lesions in rats; assay type: in vivo
Text: In vivo Studies in Rats: Assessment of the Onset of Healing and the Increase of Normalisation of Histological Changes of the Lesions. […] Thus, the effect observed with the (−) enantiomer of tenatoprazole appeared 1 day before those of the (+) enantiomer. […] These changes consisted in a reduction of the ultrastructural damage resulting in a complete morphological recovery of the oesophageal epithelium.

[9] = in vivo pharmacokinetic and metabolism study in dogs
[10] = mean plasma half-life at doses between 10 mg and 80 mg; assay type: in vivo; conditions: human, doses of between 10 mg and 80 mg
Experimental: In contrast, previous studies have shown that the racemic mixture has a mean plasma half-life of approximately 7 hours at this range of doses

[11] = 10 h after treatment administration, gastric secretions measured 4 h after the ligature
[12] = after 7 days of treatment with tenatoprazole

COc1ccc2[nH]c([S@+]([O-])Cc3ncc(C)c(OC)c3C)nc2n1 (single isomer, unassigned) [(+) isomer, reference compound]
Free acid (gastric acidity, change as compared to the control group) [1, 11]: −30%
pH (change as compared to the control group) [1, 11]: +30%
pharmacological effect 10 h after treatment administration [1]: no longer significant
plasma concentration versus dose [2, 12]: not linear
enantiomer in plasma ([3]; listed as (+) Enantiomer): Increased
enantiomer in plasma ([3]; listed as (+) enantiomer): highly significant increase
cytochromes via which the enantiomer is metabolised [4]: mainly the CYP2C19 and, to a lesser extent, by CYP3A4
T1/2 (elimination half-life) [5]: 36.7 ± 4.5 h
inhibition of gastric secretion (intragastric pH in dogs; 10 mg/kg/day for 6 days): inhibit gastric secretion
Vmax (maximal rate of metabolism) (CYP2C19): 12.63 pmol/min per pmol of cytochrome

COc1ccc2[nH]c([S+]([O-])Cc3ncc(C)c(OC)c3C)nc2n1 (racemic) [racemic mixture, 5-methoxy-2-[[(4-methoxy-3,5-dimethyl-2-pyridyl)methyl]sulfinyl]imidazo[4,5-b]pyridine]
mean plasma half-life [6]: approximately 7 hours
half-life in plasma compared with the other PPIs [7]: approximately seven times longer

COc1ccc2[nH]c([S+]([O-])Cc3ncc(C)c(OC)c3C)nc2n1 (single isomer, unassigned; (-)) [(−) isomer, (−)-5-methoxy-2-[[(4-methoxy-3,5-dimethyl-2-pyridyl)methyl]sulfinyl]imidazo[4,5-b]pyridine]
quality of healing (normalization of histological changes) [8]: significant increase
onset of healing of ulcerative lesions ([8]; as compared with the (+) enantiomer): significantly improved
appearance of the effect before that of the (+) enantiomer ([8]; healing of ulcerative lesions): 1 days
pharmacological effect 10 h after treatment administration [1]: remains pharmacologically active
AUC versus dose [2, 12]: linear with the dose
plasma concentration versus dose [2, 12]: linear with the dose
between-subject variability of pharmacokinetic parameters ([2]; compared to the (+) isomer): markedly lower
enantiomer in plasma (concentration) ([3]; listed as (−) Enantiomer): Increased
enantiomer in plasma (concentration) ([3]; listed as (−) enantiomer): higher than that of the (+) enantiomer
half-life in comparison with the (+) enantiomer [9]: significantly longer
cytochromes via which the enantiomer is metabolised ([4]; human, cytochromes (CYP3A4, CYP2C19) in vitro): mainly metabolised via the cytochrome CYP3A4
half-life [10]: 10 to 12 h
half-life ([5]; human, in vivo, read-out: T1/2 (elimination half-life) (converted)): 9.7 ± 0.9 h
elimination half-life shorter than that of the (+) isomer [5]: approximately 4 times
inhibition of gastric secretion (intragastric pH in dogs; 10 mg/kg/day for 6 days): inhibit gastric secretion
time over which a significant effect is observed (intragastric pH in dogs; 10 mg/kg/day for 6 days, compared to baseline): from the first day of administration, and is maintained until two days after treatment termination
% of holding time for 24 hours pH > 3 (intragastric pH in dogs; 1st day of treatment): 73%
% of holding time for 24 hours pH > 4 (intragastric pH in dogs; 1st day of treatment): 55%
% of holding time for 24 hours pH > 3 (intragastric pH in dogs; 2nd day of treatment): 82%
% of holding time for 24 hours pH > 4 (intragastric pH in dogs; 2nd day of treatment): 75%
% of holding time for 24 hours pH > 3 (intragastric pH in dogs; 6th day of treatment): 93%
% of holding time for 24 hours pH > 4 (intragastric pH in dogs; 6th day of treatment): 75%
metabolised more slowly than the (+) enantiomer (CYP2C19; from Vmax values): approximately 7 times
Vmax (maximal rate of metabolism) (CYP2C19): 1.90 pmol/min per pmol of cytochrome
